Assay results: US20040209897A1 (Pharmacia Corporation, priority 2002, published 2004)
Where a name gives a salt, the structure may show the parent alone.

target: Recombinant MAPKAPK2 (MK-2) (Homo sapiens, UniProt P49137); assay: Determination of MK-2 IC50 (HSP-peptide phosphorylation, anion exchange resin capture assay); assay type: biochemical; details: MAPKAP2 Avg. IC50
Sequence (P49137 whole entry, species assumed): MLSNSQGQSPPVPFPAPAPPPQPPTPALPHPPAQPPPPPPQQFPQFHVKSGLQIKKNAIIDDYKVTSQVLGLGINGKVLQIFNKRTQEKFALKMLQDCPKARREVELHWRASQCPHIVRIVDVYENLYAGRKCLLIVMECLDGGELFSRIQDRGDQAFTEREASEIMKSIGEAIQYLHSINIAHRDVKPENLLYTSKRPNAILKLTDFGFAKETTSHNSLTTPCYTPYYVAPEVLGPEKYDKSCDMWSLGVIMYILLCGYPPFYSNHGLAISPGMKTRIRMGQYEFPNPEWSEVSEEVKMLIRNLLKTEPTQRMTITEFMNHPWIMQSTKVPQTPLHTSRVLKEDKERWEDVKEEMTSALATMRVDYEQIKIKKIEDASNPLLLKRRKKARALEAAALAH

| IC50 | SMILES |
| --- | --- |
| 207 nM | NCc1cccc(-c2cc(-c3cc4c([nH]3)CCNC4=O)ccn2)c1 [Example 551, 2-{2-[3-(aminomethyl)phenyl]pyridin-4-yl}-1,5,6,7-tetrahydro-4H-pyrrolo[3,2-c]pyridin-4-one trifluoroacetate] |
| 49.7 nM | COc1ccc2cc(-c3cc(-c4cc5c([nH]4)CCNC5=O)ccn3)ccc2c1 [Example 273, trifluoroacetate] |
| 297 nM | C/C(=C\c1cc(-c2cc3c([nH]2)CCNC3=O)ccn1)c1ccccc1 [Example 582, trifluoroacetate] |
| 51.1 nM | CC(=O)OCC(=O)Nc1cccc(-c2cc(-c3cc4c([nH]3)CCNC4=O)ccn2)c1 [Example 279, trifluoroacetate] |
| 3750 nM | O=C1NCCc2[nH]c(-c3ccnc(/C=C\Cc4ccccc4)c3)cc21 [Example 749, trifluoroacetate] |
| 1150 nM | O=C1NCCc2[nH]c(-c3ccnc(/C=C/c4ccccc4C4CCCCC4)c3)cc21 [Example 694, trifluoroacetate] |
| 7980 nM | O=C1NCC(c2ccccc2)c2[nH]c(-c3ccnc(-c4cnc5ccccc5c4)c3)cc21 (stereo not shown) [Example 768, 7-phenyl-2-(2-quinolin-3-ylpyridin-4-yl)-1,5,6,7-tetrahydro-4H-pyrrolo[3,2-c]pyridin-4-one trifluoroacetate] |
| 64.3 nM | O=C(/C=C/c1ccccc1)Nc1cc(-c2cc3c([nH]2)CCNC3=O)ccn1 [Example 334, trifluoroacetate] |
| 65.9 nM | O=C(CCl)NCc1cccc(-c2cc(-c3cc4c([nH]3)CCNC4=O)ccn2)c1 [Example 344, trifluoroacetate] |
| 73.8 nM | COC(=O)N1CC(c2cc(-c3cc4c([nH]3)CCNC4=O)ccn2)=Cc2ccccc21 [Example 362, trifluoroacetate] |
| 132 nM | NCCCc1ccc(-c2cc(-c3cc4c([nH]3)CCNC4=O)ccn2)cn1 [Example 485] |
| 1080 nM | O=C1NCCc2[nH]c(-c3ccnc(/C=C\c4ccc(F)c(F)c4)c3)cc21 [Example 687, trifluoroacetate] |
| 83.1 nM | O=C(NC1CCCCC1)c1ccc(-c2cc(-c3cc4c([nH]3)CCNC4=O)ccn2)c(F)c1 [Example 391, trifluoroacetate] |
| 19.9 nM | Nc1ccc(-c2cc(-c3cc4c([nH]3)CCNC4=O)ccn2)cn1 [Example 90, trifluoroacetate] |
| 19.5 nM | CC(C)C(=O)Nc1ccc(-c2cc(-c3cc4c([nH]3)CCNC4=O)ccn2)cc1 [Example 88, trifluoroacetate] |
| 245 nM | O=C1NCCc2[nH]c(-c3ccnc(/C=C/c4c(F)c(F)c(F)c(F)c4F)c3)cc21 [Example 563, trifluoroacetate] |
| 62.3 nM | N#Cc1ccc(-c2cc(-c3cc4c([nH]3)CCNC4=O)ccn2)cc1 [Example 327, trifluoroacetate] |
| 87.7 nM | O=C(/C=C/c1ccccc1)Nc1ccc(-c2cc(-c3cc4c([nH]3)CCNC4=O)ccn2)cc1 [Example 403, trifluoroacetate] |
| 447 nM | O=C1NCCc2[nH]c(-c3ccnc(-c4cncc5ccccc45)c3)cc21 [Example 627, trifluoroacetate] |
| 5770 nM | CCN(CC)c1ccccc1/C=C/c1cc(-c2cc3c([nH]2)CCNC3=O)ccn1 [Example 762, trifluoroacetate] |
| 50.1 nM | O=C1NCCc2[nH]c(-c3ccnc(/C=C/c4c[nH]c5ccccc45)c3)cc21 [Example 276, trifluoroacetate] |
| 49.3 nM | CCc1cccc(-c2cc(-c3cc4c([nH]3)CCNC4=O)ccn2)c1 [Example 272, trifluoroacetate] |
| 53.4 nM | CC1Cc2[nH]c(-c3ccnc(-c4ccc(N(C)C)nc4)c3)cc2C(=O)N1 (stereo not shown) [Example 295, trifluoroacetate] |

| SMILES | IC50 |
| --- | --- |
| O=C(CCCOc1ccc(-c2cc(-c3cc4c([nH]3)CCNC4=O)ccn2)cc1)NCCN1CCOCC1 [Example 357, trifluoroacetate] | 72.2 nM |

same assay, conditions: MAPKAP2 Avg. IC50, MK-2 inhibiting activity, Table I

| IC50 | SMILES |
| --- | --- |
| 20000 nM | NCCc1[nH]c(-c2ccnc(NN)c2)cc1C(=O)NN [Example 817, 2-(2-aminoethyl)-5-(2-hydrazinopyridin-4-yl)-1H-pyrrole-3-carbohydrazide] |
